Tests used:
Assay type in all cases: binding
Conditions in all cases: Compound Concentration 10 µM
[1] = molecular target: T1, panel of 442 kinases (Homo sapiens, UniProt O75582)
T1 construct: purchased KINOMEscan
Text: (§1) We assessed the selectivity of members of this scaffold using the KINOMEscan methodology across a near comprehensive panel of 442 kinases [[18,27]].

[2] = molecular target: T2, panel of 442 kinases (Homo sapiens, UniProt P06239)
T2 construct: purchased KINOMEscan
Text: as §1

[3] = molecular target: T3, panel of 442 kinases (Homo sapiens, UniProt Q9UQ88)
T3 construct: purchased KINOMEscan
T3 sequence (Q9UQ88 1-783): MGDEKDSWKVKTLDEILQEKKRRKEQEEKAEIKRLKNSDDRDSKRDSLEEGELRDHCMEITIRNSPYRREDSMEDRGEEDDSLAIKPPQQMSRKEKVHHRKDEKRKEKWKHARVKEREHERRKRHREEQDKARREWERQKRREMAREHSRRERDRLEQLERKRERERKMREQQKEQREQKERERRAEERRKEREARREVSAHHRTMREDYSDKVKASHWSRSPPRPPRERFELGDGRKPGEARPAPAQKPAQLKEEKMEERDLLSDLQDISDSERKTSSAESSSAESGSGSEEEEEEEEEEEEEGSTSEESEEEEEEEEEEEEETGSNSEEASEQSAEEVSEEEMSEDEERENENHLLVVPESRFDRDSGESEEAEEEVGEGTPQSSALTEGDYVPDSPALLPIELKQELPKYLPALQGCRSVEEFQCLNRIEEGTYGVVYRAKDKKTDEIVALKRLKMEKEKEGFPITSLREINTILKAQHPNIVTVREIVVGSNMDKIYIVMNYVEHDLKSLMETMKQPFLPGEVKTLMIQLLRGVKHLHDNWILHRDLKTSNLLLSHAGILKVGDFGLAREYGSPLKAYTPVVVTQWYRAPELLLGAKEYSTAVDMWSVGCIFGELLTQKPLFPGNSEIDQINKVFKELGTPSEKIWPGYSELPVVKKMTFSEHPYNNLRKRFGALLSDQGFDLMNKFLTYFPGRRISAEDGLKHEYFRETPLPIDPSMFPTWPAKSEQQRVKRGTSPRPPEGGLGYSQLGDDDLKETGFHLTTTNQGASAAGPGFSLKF
Text: as §1

T2 sequence (P06239 whole entry): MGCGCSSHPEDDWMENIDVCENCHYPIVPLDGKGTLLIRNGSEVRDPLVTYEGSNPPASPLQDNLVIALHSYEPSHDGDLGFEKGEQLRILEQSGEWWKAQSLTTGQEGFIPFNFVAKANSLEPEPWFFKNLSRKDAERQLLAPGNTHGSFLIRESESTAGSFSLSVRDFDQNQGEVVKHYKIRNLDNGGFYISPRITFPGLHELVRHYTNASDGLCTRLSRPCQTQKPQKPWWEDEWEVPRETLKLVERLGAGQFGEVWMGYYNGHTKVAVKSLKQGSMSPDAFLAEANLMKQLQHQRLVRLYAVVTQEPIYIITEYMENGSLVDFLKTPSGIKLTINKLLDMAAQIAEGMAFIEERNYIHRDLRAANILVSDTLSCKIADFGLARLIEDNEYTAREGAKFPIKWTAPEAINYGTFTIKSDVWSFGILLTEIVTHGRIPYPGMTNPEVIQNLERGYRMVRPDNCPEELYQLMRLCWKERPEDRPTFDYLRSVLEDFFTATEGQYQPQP
T1 sequence (O75582 whole entry): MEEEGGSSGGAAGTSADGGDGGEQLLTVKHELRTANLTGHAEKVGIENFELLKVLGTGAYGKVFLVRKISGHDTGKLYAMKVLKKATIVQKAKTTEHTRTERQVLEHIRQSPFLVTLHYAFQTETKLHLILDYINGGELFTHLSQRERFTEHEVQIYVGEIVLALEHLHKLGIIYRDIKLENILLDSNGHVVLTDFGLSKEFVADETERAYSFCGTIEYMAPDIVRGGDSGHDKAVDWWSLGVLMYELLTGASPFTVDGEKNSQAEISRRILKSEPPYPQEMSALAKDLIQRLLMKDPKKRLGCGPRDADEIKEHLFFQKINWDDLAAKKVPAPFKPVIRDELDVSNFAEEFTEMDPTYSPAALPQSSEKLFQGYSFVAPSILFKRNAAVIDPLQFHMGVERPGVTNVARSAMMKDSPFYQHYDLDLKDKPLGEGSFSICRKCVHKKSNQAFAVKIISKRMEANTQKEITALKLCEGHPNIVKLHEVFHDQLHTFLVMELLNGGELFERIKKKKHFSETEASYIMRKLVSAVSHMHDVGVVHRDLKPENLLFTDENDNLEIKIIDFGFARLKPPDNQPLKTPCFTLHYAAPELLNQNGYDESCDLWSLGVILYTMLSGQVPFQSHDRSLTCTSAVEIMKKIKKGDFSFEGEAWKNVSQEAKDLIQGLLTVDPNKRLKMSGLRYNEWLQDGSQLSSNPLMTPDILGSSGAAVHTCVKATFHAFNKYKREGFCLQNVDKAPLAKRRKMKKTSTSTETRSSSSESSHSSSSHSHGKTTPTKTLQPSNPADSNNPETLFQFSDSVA

| SMILES | KINOMEscan: RPS6KA5(Kin.Dom.2-C-terminal) [1] | KINOMEscan: RPS6KA5(Kin.Dom.1-N-terminal) [1] | KINOMEscan: LCK [2] | KINOMEscan: CDC2L2 [3] |
| --- | --- | --- | --- | --- |
| COc1cc(C(=O)N2CCC(N3CCN(C)CC3)CC2)ccc1Nc1ncc2c(n1)N1CCc3cccc(c31)C(=O)N2C [Compound 24] | 43 | – | – | – |
| CCOc1cc(C(=O)N2CCC(N3CCN(C)CC3)CC2)ccc1Nc1ncc2c(n1)N(C1CCCC1)c1ccccc1C(=O)N2C [Compound 26] | 86 | 100 | 100 | 100 |
| COc1cc(C(=O)N2CCC(N3CCN(C)CC3)CC2)ccc1Nc1ncc2c(n1)N(C1CCCC1)c1ccccc1C(=O)N2C [Compound 25, 11-cyclopentyl-2-((2-methoxy-4-(4-(4-methylpiperazin-1-yl)piperidine-1-carbonyl)phenyl)amino)-5-methyl-5H-benzo[e]pyrimido[5,4-b][1,4]diazepin-6(11H)-one] | 100 | 100 | 66 | 100 |
| COc1cc(C(=O)N2CCC(N3CCN(C)CC3)CC2)ccc1Nc1ncc2c(n1)N(C)c1ccccc1C(=O)N2C [15 (LRRK2-IN-1)] | 92 | 96 | 100 | 82 |

Reference: PMC3914206
